Assays:
CXCR6 = biological target: T1, CXCR6 (Homo sapiens, UniProt O00574); test: NanoBRET screen HiBiT-CXCR6 in HEK293; type: binding; conditions: CXCR6
T1 construct: purchased Promega (in-house HiBiT-GPCR construct library, NanoBRET)
Method: (§1) Each tracer candidate was screened across the entire library of HiBiT-GPCR constructs using NanoBRET as the detection modality. As depicted in Figure 4A, the specificity of interactions was evaluated through decrease in BRET due to competitive displacement of a bound tracer by excess parental compound. Each tracer was analyzed for binding to each HiBiT-GPCR fusion in the absence and in the presence of competing parental compound. Briefly, HEK293 cells were transfected with HiBiT-GPCR constructs diluted into promoterless DNA to reduce expression and maximize translocation to the cell surface. Each tracer candidate was then screened at concentrations of 1 μM and 0.1 μM across cells expressing these fusions. Cells were treated for 1.5 h with tracer either alone or in the presence of 20 μM competing parental compound (i.e., control). BRET was measured upon addition of purified LgBiT and subsequent complementation with HiBiT genetically fused to a GPCR. The specificity of interactions was assessed through a decrease in BRET signal due to competitive displacement of the bound tracer. To further gauge the robustness of these interactions, the fold response over the control (i.e., BRETtracer/BRETcontrol) was calculated. We chose a 1.5-fold response, which translates to ≥7-fold signal over noise as the minimal threshold required to score an interaction as positive. […]. Below we highlight the screening results obtained for our exemplary fluorescent tracers based on Clozapine, Amitriptyline and AZD1283.
(§2) HiBiT-GPCR DNA constructs were diluted in 10 mM Tris pH 8 to a final concentration of 0.01 μg/μL, arrayed in 96-well plates and stored at −20 °C. For transfection, HEK293 cells were suspended in Opti-MEM (without phenol red) supplemented with 2% fetal bovine serum (Seradigm) and 100 units/mL penicillin–streptomycin (Gibco) at a final concentration of 220,000 cells/mL and dispensed into white 96-well plates at 90 μL/well. Subsequent transfections and screens were carried using an Agilent Bravo Automated Liquid Handling Platform. First, the 96-well HiBiT DNA arrays were diluted 25-fold in Opti-MEM (without serum or phenol red) to a final concentration of 0.0004 μg/μL and 20 μL of the diluted DNAs were transferred into new 96-well plates. Next, promoterless carrier DNA (1 μg/μL) was diluted 25-fold (0.04 μg/μL) and then dispensed into the diluted arrays at 20 μL/well. Following brief mixing, Viafect transfection reagent (Promega) diluted 16-fold into Opti-MEM was dispensed into the plates at 40 μL/well. After mixing by pipetting, plates were incubated for 10 min on the pipetting station deck. The DNA-transfection reagent complexes were then added to plates containing cells. To facilitate the screen, 10 μL of DNA-transfection reagent complexes were added in duplicates to the top 4 and bottom 4 rows, resulting in two identical 48-well arrays per plate. Plates with transfected cells were incubated for 18–20 h at 37 °C/5% CO2. A screen of each tracer across the entire library using two different concentrations requires duplicate plates of transfected cells. Depending on the number of tracers being screened, transfections can be scaled up using the same ratios. The next day, for each tracer, four 20× screening solutions in tracer dilution buffer (Promega) were prepared: two duplicates at final concentration of 20 μM and two duplicates at a final concentration of 2 μM. A competing unmodified compound was added to one of each duplicate at a final concentration of 400 μM. The four resulting solutions were diluted 4-fold in Opti-MEM without serum or phenol red to generate 5× solutions (5 µM and 0.5 µM tracer +/− 100 μM competing compound). To screen the library, a BioTek MultiFlo FX liquid dispenser was used to dispense 22.5 µL of tracer solution to the top 4 rows and 22.5 µL tracer + competing compound solution to the 4 bottom rows. Plates were briefly mixed on an orbital shaker and incubated for 1.5 h at room temperature. […]

TACR2 = biological target: T2, TACR2 (Homo sapiens, UniProt P21452); test: NanoBRET screen HiBiT-TACR2 in HEK293; type: binding; conditions: TACR2
T2 construct: purchased Promega (in-house HiBiT-GPCR construct library, NanoBRET)
T2 sequence (P21452 1-398): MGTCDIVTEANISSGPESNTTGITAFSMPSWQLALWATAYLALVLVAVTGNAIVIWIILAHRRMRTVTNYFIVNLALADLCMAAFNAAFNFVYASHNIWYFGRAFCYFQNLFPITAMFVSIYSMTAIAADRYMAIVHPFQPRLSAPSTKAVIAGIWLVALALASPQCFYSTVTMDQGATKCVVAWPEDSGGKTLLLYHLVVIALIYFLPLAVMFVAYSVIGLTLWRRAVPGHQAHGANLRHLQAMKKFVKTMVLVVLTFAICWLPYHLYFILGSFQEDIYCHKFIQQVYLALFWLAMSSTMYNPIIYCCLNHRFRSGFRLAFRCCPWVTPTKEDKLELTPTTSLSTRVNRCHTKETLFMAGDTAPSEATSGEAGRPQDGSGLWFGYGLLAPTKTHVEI
Method: as §1, §2

T1 sequence (O00574 whole entry): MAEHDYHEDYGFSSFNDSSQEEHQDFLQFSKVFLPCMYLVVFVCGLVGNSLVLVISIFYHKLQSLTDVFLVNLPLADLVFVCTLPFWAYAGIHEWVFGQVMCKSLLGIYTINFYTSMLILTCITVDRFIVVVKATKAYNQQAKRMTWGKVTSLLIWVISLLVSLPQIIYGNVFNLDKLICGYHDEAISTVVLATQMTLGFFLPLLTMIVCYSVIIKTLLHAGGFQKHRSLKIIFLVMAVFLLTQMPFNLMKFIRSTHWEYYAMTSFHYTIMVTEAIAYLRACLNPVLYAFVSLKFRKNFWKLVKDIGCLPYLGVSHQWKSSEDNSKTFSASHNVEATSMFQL

Row | SMILES | NanoBRET Fold Response (CXCR6; tracer 0.1μM) | NanoBRET Fold Response (CXCR6; tracer 1μM) | NanoBRET Fold Response (TACR2; tracer 0.1μM) | NanoBRET Fold Response (TACR2; tracer 1μM) | NanoBRET Fold Response (CXCR6; 0.1μM) | NanoBRET Fold Response (CXCR6; 1μM) | NanoBRET Fold Response (TACR2; 0.1μM) | NanoBRET Fold Response (TACR2; 1μM)
1 | COc1ccccc1N1CCN(CCCCN2C(=O)c3ccc(CNC(=O)CCOCCNC(=O)c4ccc(CNC(=O)CCc5ccc6n5[B-](F)(F)[N+]5=C(c7ccc[nH]7)C=CC5=C6)cc4)cc3C2=O)CC1 [NAN-190-3-NB590] | 1.15 | 0.93 | 1.12 | 1.09 |  |  |  | 
2 | O=C(CCc1ccc2n1[B-](F)(F)[N+]1=C(c3ccc[nH]3)C=CC1=C2)NCc1ccc(C(=O)NCCOCCC(=O)N[C@@H]2CC[C@@]3(O)[C@H]4Cc5ccc(O)c6c5[C@@]3(CCN4CC3CC3)[C@H]2O6)cc1 [Naltrexone-3-NB590] | 1.02 | 0.91 | 0.82 | 0.91 |  |  |  | 
3 | Cc1cc2c(s1)Nc1ccccc1N=C2N1CCN(CCCNC(=O)CCOCCOCCOCCOCCNC(=O)CCc2ccc3n2[B-](F)(F)[N+]2=C(c4ccc[nH]4)C=CC2=C3)CC1 [Olanzapine-a-2-NB590] | 1.00 | 0.98 | 1.01 | 0.88 |  |  |  | 
4 | O=C(CCc1ccc2n1[B-](F)(F)[N+]1=C(c3ccc[nH]3)C=CC1=C2)NCc1ccc(C(=O)NCCOCCOCCNCC(O)COc2cccc3ccccc23)cc1 (stereo not drawn) [Propranolol-3-NB590] |  |  |  |  | 0.99 | 0.88 | 1.01 | 1.01
5 | O=C(CCc1ccc2n1[B-](F)(F)[N+]1=C(c3ccc[nH]3)C=CC1=C2)NCCOCCOCCNC(=O)OCCOCCN1CCN(C2=Nc3ccccc3Sc3ccccc32)CC1 [Quetiapine-a-2-NB590] | 0.98 | 1.12 | 1.22 | 0.72 |  |  |  | 
6 | Cc1nc2n(c(=O)c1CCN1CCC(c3noc4cc(F)ccc34)CC1)CCCC2OC(=O)NCCOCCOCCOCCOCCNC(=O)CCc1ccc2n1[B-](F)(F)[N+]1=C(c3ccc[nH]3)C=CC1=C2 (stereo not drawn) [Risperidone-2-NB590] | 1.00 | 1.24 | 1.18 | 1.09 |  |  |  | 
7 | CC(C)N(CC[C@H](c1ccccc1)c1cc(CCNC(=O)CCOCCOCCOCCOCCNC(=O)CCc2ccc3n2[B-](F)(F)[N+]2=C(c4ccc[nH]4)C=CC2=C3)ccc1O)C(C)C [Tolterodine-2-NB590] | 0.89 | 0.91 | 0.87 | 1.41 |  |  |  | 
8 | CC(C)N(CC[C@H](c1ccccc1)c1cc(CCNC(=O)c2ccc(CNC(=O)CCc3ccc4n3[B-](F)(F)[N+]3=C(c5ccc[nH]5)C=CC3=C4)cc2)ccc1O)C(C)C [Tolterodine-BZ-NB590] | 0.99 | 0.98 | 1.38 | 1.40 |  |  |  | 
9 | CCCn1c(=O)c2[nH]c(-c3ccc(OCC(=O)NCCNC(=O)CCOCCNC(=O)c4ccc(CNC(=O)CCc5ccc6n5[B-](F)(F)[N+]5=C(c7ccc[nH]7)C=CC5=C6)cc4)cc3)nc2n(CCC)c1=O [XAC-3-NB590] | 1.06 | 1.09 | 0.96 | 1.21 |  |  |  | 
